For this test, the system named is RUP40 transcript in neonatal rat ventricular myocytes (NRVMs). The test is described as follows: RT-PCR of RUP40 transcript in neonatal rat ventricular myocytes. The test is classed as cell-based. Conditions: 24 hours following addition to media, FIG. 4. Here is the method:
Neonatal rat ventricular myocytes (NRVMs) were isolated and cultured as described previously [Adams, J W et al., J Biol Chem (1996) 271:1179-86]. Briefly, hearts were obtained from 1- to 2-day old Sprague-Dawley rat pups and digested with collagenase, and myocytes were purified by passage through a Percoll gradient. Cells were plated onto tissue culture dishes precoated with 1% gelatin and maintained overnight in 4:1 DMEM/medium-199 supplemented with 10% horse serum, 5% fetal calf serum, and antibiotics (100 units/ml penicillin and 100 μg/ml streptomycin. After 18 hours in plating medium, myocytes were washed with maintenance medium (DMEM/medium 199 plus antibiotics) to remove dead cells and debris and refreshed with maintenance medium for the duration of the experiment.
Total RNA isolated from NRVMs and fibroblasts as described above was used as a template for generation of reverse transcribed DNA (RT-DNA) using the RT for PCR kit (Becton Dickinson, Franldin, N.J.) according to manufacturer's instructions. RUP40 expression was detected in RT-DNA samples by PCR. PCR conditions were: 96° C. or 2 min; 30 cycles of 96° C. for 30 sec, 55° C. for 30 sec, 72° C. for 2 min; 72° C. for 10 min.
The amplified rat RUP40 DNA product is of size 403 base pairs. G3PDH amplifiers (Becton Dickinson, Franldin, N.J.) were added to each PCR reaction as an internal control.

For the compound prostaglandin F2 alpha [PG], the “RUP40 transcript levels in the myocytes” value is reported as “remain elevated”.

As for `CCCCCCCCCCCCCC(=O)O[C@@H]1[C@@H](C)[C@@]2(O)[C@@H](C=C(CO)C[C@]3(O)C(=O)C(C)=C[C@@H]23)[C@@H]2C(C)(C)[C@]12OC(C)=O` [PMA, phorbol 12-myristate 13-acetate], the “RUP40 transcript levels in the myocytes” value is listed as “drop dramatically”.

For the compound `CNC[C@H](O)c1cccc(O)c1` [PE, phenylephrine], the “RUP40 transcript levels in the myocytes” value is recorded as “remain elevated”.

(Values after patent US8017313B2, “Human G protein-coupled receptor and modulators thereof for the treatment of cardiovascular disorders” (Arena Pharmaceuticals, Inc., priority 2003, dated 2011).)
